{"source": "patent US10662156B2", "about": "“Guanidine derivative and medical use thereof” (Toray Industries, Inc., priority 2016, dated 2020)", "test_system": "oxazolone-induced atopic dermatitis mouse models", "test": "Suppressive effect on auricular hypertrophy in oxazolone-induced atopic dermatitis mouse model", "assay_type": "in vivo, BALB/c male mice", "conditions": "30 mg/kg orally twice a day", "experimental": "The guanidine derivative (I) or the pharmacologically acceptable salt thereof was evaluated for its exertion of a therapeutic effect on atopic dermatitis, one type of allergic disease, in an in vivo experimental system using oxazolone-induced atopic dermatitis mouse models in accordance with the method described in the literature (Plos One, Vol. 8, No. 7, e6614). Specifically, the evaluation was conducted by verifying the suppressive effect of the compound on auricular hypertrophy by using, as an index, the thickness of the auricle increased with the progression of symptoms in oxazolone-induced atopic dermatitis models.\nSeven-week-old BALB/c male mice (Charles River Laboratories Japan, Inc.) were preliminarily bred and then used at the age of 8 weeks. […]\nThe thickness of the auricle before oxazolone administration (before induction) at the date of induction and the thickness of the auricle at post-induction day 28 were measured using a digital micrometer (Mitsutoyo Corp.), and the change therebetween (the thickness of the auricle at post-induction day 28—the thickness of the auricle before induction) was used as an index for drug efficacy evaluation. […]", "data": [{"smiles": "Cl.N/C(=N\\S(=O)(=O)c1ccccc1)NCc1cnc(-c2ccc(Cl)cc2)c(-c2ccc(Cl)cc2)c1", "note": "[Compound of Example 2, N-(amino(((5,6-bis(4-chlorophenyl)pyridin-3-yl)methyl)amino)methylene)benzenesulfonamide Hydrochloride]", "values": [{"measurement": "change in the thickness of the auricle (increase)", "setting": "post-induction days 21 to 27, post-induction day 28 vs before induction, vehicle group 515 μm", "result": 419, "unit": "μm"}, {"measurement": "change in the thickness of the auricle compared to the vehicle administration group (in words)", "setting": "t test, P<0.05", "result": "statistically significantly decreased"}]}]}
